EP1299350B1, “SUBSTITUTED BENZAMIDES FOR IMMUNE ENHANCEMENT AND FOR THE TREATMENT OF CANCER, INFECTION AND MANIC-DEPRESSIVE ILLNESS” (Active Biotech AB, priority 2000, dated 2002)

System: AP-1
Assay: AP-1-driven luciferase reporter gene assay in Jurkat T cell line (Jurkat/AP-1rep), stimulated with phorbol myristate acetate and ionomycin
Format: cell-based
Details: Jurkat/AP-1rep cells stimulated for 5.5 h at 37°C with phorbol myristate acetate and ionomycin; luciferase luminescence; Figure 1
Protocol: The compounds of general formula (I) were assayed for AP-1 enhancement. The compounds of this invention were tested in assays for the modulation of stimulated activity of an AP-1-driven reporter gene in the Jurkat T cell line. The activation of this reporter gene results in luciferase production and the amounts of produced luciferase parallels the level of AP-1 activity. A high level of AP-1 activity is pivotal to e.g. high production of IL-2.
Cells from the Jurkat T cell line were transfected with an AP-1-driven luciferase gene reporter construct (Parra et al., 1997) together with a selection gene vector. Selected clones from the resulting stable AP-1 reporter gene transfectants were used in the assays for AP-1 transcription factor activity. These transfected Jurkat cells (Jurkat/AP-1rep) were grown in RPMI 1640 supplemented with glutamine, hepes, sodium pyruvate, gentamicin, 10% FCS and G418. To evaluate distinct compounds for their capacity to enhance the AP-1 activity, Jurkat/AP-1rep cells were stimulated for 5.5 h in the temperature of 37°C with phorbol myristate acetate and ionomycin in the absence and presence of test compounds. The 96 well plates containing the cell cultures were then put on ice until harvested. […] AP-1 activity was measured as luminiscence produced by luciferase substrate, which was added to the wells in conjunction with measurement.

SMILES: CCN(CC)CCCNC(=O)c1ccc(NC(=O)C(C)C)cc1OC [Compound A, N-[(3-diethylamino)propyl]-4-isobutyrylamino-2-methoxybenzamide]
- activity of the AP-1 driven reporter: enhance the activity of the AP-1 driven reporter in a dose dependent fashion down to µM concentrations
